Assay results: ChEMBL document CHEMBL1201862, “PubChem BioAssay data set” (2004)
Active and inactive are the calls of the source.

Columns and labels:
P388/ADR = assay: cells; type: functional; settings: Mus musculus
SN12K1 = assay: cells; type: functional; settings: Homo sapiens
P388 = assay: cells; type: functional; settings: Mus musculus
[1] = growth inhibition of yeast DHODH-expressing 3D7 parasites – SYBR Green, dry powder samples, dose response (AID 1159570); type: functional, cell-based;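 also: parasite growth measured after 72 hours of compound exposure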
[2] = P. falciparum Dd2 growth inhibitors, dose response, SYBR Green, cherry-picked samples (AID 1159567); type: functional, cell-based
[3] = Dd2 malaria parasite growth inhibition potency – SYBR Green, dry powder samples, dose response (AID 1159566); type: functional, cell-based;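 also: potency for growth inhibition with lower SYBR green DNA signal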
[4] = growth inhibition of PfATP4-mutant resistant parasites – NITD609-resistant line, SYBR Green, dry powder, dose response (AID 1159571); type: functional, cell-based;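 also: parasites synchronized at ring stage by sorbitol before testing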
Leucine aminopeptidase = target: T1, Leucine aminopeptidase (Plasmodium falciparum 3D7, UniProt Q8IL11); assay: P. falciparum M17LAP inhibitors, primary screen, biochemical, fluorogenic H-Leu-NHMec substrate, 1536-well (AID 1619); type: functional
T1 sequence (Q8IL11 whole entry): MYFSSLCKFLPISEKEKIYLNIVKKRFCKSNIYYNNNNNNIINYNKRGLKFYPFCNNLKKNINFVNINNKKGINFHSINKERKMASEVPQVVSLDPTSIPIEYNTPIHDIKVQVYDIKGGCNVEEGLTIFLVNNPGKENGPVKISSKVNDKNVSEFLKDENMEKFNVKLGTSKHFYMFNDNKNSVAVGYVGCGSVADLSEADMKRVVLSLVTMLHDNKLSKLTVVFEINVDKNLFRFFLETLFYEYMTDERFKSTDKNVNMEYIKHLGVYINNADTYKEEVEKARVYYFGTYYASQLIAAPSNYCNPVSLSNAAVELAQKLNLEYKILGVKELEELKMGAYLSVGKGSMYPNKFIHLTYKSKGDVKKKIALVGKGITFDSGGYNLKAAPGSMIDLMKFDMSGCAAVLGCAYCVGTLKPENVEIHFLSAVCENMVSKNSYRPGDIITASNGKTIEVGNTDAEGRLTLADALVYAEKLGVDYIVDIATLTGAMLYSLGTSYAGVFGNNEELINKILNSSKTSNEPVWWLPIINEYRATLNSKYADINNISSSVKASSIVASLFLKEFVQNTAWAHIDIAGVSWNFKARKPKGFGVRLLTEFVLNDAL

[5] = target: T2, Polyadenylate-binding protein 1 (Homo sapiens, UniProt P11940); assay: MLLE binding blockers, Cy5 peptide tracer – biochemical, fluorescence polarization, Cy5-PAM2 peptide, secondary, miRNA deadenylation inhibitor project, dose response (AID 602260); type: functional; settings: read-out: IC50_Mean
T2 sequence (P11940 whole entry, the tested form may be a part): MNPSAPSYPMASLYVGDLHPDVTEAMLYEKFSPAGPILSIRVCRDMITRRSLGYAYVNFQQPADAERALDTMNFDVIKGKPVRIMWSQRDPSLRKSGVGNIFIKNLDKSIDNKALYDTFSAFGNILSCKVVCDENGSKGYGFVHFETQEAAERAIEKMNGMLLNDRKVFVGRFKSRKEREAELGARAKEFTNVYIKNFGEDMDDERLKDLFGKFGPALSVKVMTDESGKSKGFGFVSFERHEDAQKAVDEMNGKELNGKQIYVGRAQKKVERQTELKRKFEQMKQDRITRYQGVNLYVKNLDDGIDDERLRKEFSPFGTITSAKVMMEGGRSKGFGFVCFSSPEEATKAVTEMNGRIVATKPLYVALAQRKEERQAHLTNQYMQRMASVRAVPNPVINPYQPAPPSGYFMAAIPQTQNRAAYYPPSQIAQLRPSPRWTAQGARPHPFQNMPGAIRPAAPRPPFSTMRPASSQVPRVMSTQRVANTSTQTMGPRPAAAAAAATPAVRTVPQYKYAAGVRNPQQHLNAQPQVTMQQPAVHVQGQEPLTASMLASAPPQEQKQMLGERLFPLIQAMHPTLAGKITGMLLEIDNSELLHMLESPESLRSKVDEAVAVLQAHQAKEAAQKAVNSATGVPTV

[6] = target: T2, Polyadenylate-binding protein 1; assay: MLLE domain peptide-binding blockers, IC50 – biochemical, fluorescence polarization, FITC-PAM2 peptide, dose response (AID 602259); type: functional; settings: read-out: IC50_Mean
[7] = target: T3, Short transient receptor potential channel 4 (Mus musculus, UniProt Q9QUQ5); assay: calcium entry via TRPC4 opening agents – cell-based, HEK293 TRPC4/mu-opioid, Fluo-4 calcium, dose response (AID 434937); type: functional
T3 sequence (Q9QUQ5 whole entry): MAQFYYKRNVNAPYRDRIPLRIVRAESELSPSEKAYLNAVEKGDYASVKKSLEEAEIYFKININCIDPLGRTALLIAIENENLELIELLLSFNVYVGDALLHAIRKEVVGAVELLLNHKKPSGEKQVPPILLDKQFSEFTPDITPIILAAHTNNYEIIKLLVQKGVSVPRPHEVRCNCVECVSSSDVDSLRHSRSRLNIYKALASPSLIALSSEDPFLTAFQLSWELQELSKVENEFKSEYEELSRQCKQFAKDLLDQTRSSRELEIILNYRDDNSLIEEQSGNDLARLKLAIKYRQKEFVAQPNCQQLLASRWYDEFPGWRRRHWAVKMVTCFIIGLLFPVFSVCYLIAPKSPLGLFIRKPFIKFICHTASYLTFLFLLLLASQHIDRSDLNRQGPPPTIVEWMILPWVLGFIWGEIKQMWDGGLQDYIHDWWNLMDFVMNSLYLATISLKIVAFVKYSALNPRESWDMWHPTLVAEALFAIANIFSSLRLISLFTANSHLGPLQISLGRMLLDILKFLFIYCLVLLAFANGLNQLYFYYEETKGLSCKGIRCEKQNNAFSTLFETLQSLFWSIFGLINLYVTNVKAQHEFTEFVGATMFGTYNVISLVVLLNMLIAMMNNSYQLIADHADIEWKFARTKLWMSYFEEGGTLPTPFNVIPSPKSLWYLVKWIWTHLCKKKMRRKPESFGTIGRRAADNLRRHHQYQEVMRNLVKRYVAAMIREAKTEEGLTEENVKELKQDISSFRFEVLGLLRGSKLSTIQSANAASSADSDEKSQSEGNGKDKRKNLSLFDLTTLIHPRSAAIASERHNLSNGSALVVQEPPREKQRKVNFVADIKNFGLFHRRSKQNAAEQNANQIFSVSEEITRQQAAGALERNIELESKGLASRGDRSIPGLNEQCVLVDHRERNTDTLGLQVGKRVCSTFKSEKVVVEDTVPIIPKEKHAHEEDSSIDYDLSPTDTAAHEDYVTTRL

[8] = reduction of Shn3 3'UTR-driven luciferase in osteoblasts – cell-based, Clone20 osteoblasts, firefly luciferase, cherry-picked, dose response (AID 624132); type: functional;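 also: firefly luciferase luminescence from reporter carrying the Shn3 3'UTR in osteoblasts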
[9] = loss of viability in HepG2 cells – cell-based, CellTiter-Glo, cherry-picked, cytotoxicity control for Shn3 inhibitor project, dose response (AID 624134); type: functional
[10] = non-specific 3'UTR reporter inhibition in Clone20-Shn3RL – cell-based, Renilla luciferase, cherry-picked, counter-screen for Shn3 inhibitor project, dose response (AID 624133); type: functional
Cytochrome P450 2C19 = Cytochrome P450 2C19 (Homo sapiens, UniProt P33261); assay: Cytochrome panel assay with activity outcomes. Panel member name: p450-cyp2c19 Compounds with AC50 equal or less than 10 uM are considered active; type: functional; settings: read-out: AC50
Chain of Cytochrome P450 2C19 (P33261 whole entry): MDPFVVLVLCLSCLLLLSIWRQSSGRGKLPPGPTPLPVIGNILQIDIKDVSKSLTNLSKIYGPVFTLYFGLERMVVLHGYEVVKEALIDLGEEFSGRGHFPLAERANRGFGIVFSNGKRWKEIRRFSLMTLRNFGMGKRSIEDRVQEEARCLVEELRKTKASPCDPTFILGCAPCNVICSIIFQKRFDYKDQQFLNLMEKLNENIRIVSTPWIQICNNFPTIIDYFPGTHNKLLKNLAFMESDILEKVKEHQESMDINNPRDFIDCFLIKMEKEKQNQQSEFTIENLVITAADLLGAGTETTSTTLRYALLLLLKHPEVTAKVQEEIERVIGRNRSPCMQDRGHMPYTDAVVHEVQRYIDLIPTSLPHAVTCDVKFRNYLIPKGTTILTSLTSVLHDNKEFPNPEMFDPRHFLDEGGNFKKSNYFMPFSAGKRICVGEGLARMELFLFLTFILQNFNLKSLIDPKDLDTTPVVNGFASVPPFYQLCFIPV

[11] = target: T4, Heat shock factor protein 1 (Mus musculus, UniProt P38532); assay: decrease of HSF1-responsive luciferase luminescence – cell-based, NIH3T3, dose retest, confirmation (AID 2382); type: functional;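 also: NIH3T3 fibroblasts with HSF1-driven luciferase reporter stressed by proteasome inhibitor MG132; luminescence from HSF1-driven luciferase expression after 8 hours of MG132 stress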
T4 sequence (P38532 whole entry): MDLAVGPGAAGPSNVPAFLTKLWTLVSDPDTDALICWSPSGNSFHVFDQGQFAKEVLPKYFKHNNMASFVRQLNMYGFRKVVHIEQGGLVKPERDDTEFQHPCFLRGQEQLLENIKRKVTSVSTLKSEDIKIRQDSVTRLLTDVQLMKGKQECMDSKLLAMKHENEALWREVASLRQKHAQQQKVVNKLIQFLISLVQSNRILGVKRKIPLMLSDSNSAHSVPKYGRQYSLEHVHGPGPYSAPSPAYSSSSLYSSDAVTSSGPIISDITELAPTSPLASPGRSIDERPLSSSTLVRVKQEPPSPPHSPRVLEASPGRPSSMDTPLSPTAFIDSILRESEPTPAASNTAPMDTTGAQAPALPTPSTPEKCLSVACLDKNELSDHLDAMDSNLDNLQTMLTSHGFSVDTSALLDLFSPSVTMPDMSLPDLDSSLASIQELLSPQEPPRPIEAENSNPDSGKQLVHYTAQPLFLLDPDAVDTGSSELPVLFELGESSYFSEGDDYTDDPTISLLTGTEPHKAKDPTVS

[12] = system: Streptococcus sp. 'group A'; assay: Streptococcus pyogenes SK(-)GAS viability under kanamycin – luminescence, BacTiterGlo, confirmation, counter-screen for streptokinase expression inhibitor project, dose response (AID 1900); type: functional, organism-based
Streptococcus = assay: GAS UMAA2166 growth inhibition – luminescence, BacTiterGlo, counter-screen for streptokinase expression inhibitor project, dose response (AID 1915); type: functional, organism-based;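 also: potency for reduction of bacterial viability or growth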

CC(C)(C)OC(=O)NC1CCC(C(C)(C)C)CC1 (stereo unspecified)
GI50 (P388/ADR): 30 µM (inactive)
GI50 (SN12K1): 45.4 µM (inactive)
GI50 (P388): 15.9 µM (inactive)

CC(C)(C)[S@@+]([O-])N1Cc2cc(C(=O)NCCc3ccncc3)nc(-c3cccc(-c4ccccc4)c3)c2[C@H]1CCO
AC50 [1]: 1.08 µM (active)
AC50 [2]: 0.414 µM (active)
AC50 [3]: 0.366 µM (active)
AC50 [4]: 0.537 µM (active)

CC(Sc1ccc2c(c1)OCCO2)C(=O)Nc1ncc(Cl)cc1Cl (stereo unspecified)
IC50 (Leucine aminopeptidase): 3.8 µM (active)
IC50 [5]: > 66 µM (inactive)
IC50 [6]: > 66 µM (inactive)

CC(C)CCCCCCCCCCCCC(=O)NCC(=O)NC1C(O)C(O)C(Nc2[nH]cnc3ncnc2-3)OC1C(O)CO (stereo unspecified)
GI50 (P388/ADR): 0.00128 µM (active)
GI50 (SN12K1): 0.00531 µM (active)
GI50 (P388): 0.000211 µM (active)

CCOc1ccccc1CN1CCNC(=O)C1CC(=O)N(C)CCc1ccccn1 (stereo unspecified)
EC50 [7]: 2.11 µM (active)

C#CC[N+](CCO)(CCO)CCCCCCCCCCCCCCCCCC
GI50 (P388/ADR): 8.55 µM (inactive)
GI50 (SN12K1): 13 µM (inactive)
GI50 (P388): 1.08 µM (active)

Cc1cc(C)c(-c2csc(NC(=O)CCCc3nc(O)c4ccccc4n3)n2)c(C)c1
AC50 [8]: 2.97 µM (active)
AC50 [9]: > 70 µM (inactive)
AC50 [10]: 5.38 µM (active)

CC1OC(CO)(n2cnc3c(N)ncnc32)C(O)C1O (stereo unspecified)
GI50 (P388/ADR): > 100 µM (inactive)
GI50 (SN12K1): > 100 µM (inactive)
GI50 (P388): > 100 µM (inactive)

Cn1c(C(=O)O)c(CC(=O)NCC2COc3ccccc3O2)c2ccccc21 (stereo unspecified)
IC50 (Leucine aminopeptidase): 15.7 µM (active)
AC50 (Cytochrome P450 2C19): 25.1 µM (inconclusive)

CCOC(=O)Cc1csc(NC(=O)NC2(C(F)(F)F)Oc3cc(Cl)c(Cl)cc3O2)n1
IC50 (Leucine aminopeptidase): 27.7 µM (active)
EC50 [11]: > 195 µM (not active)

Cc1ccccc1OCC(=O)NNC(=S)NC(=O)c1ccco1
EC50 [12]: 0.599 µM (active)
EC50 (Streptococcus): 2.45 µM (active)
EC50 [7]: 9.44 µM (active)

Cc1onc(-c2ccccc2Cl)c1C(=O)N1CCN(C/C=C/c2ccccc2)CC1
EC50 [7]: 5.96 µM (active)
